Reference: PubChem BioAssay AID248 (DTP/NCI, 2004)
Values joined by “and” are separate entries in the source; they are usually repeats but may differ in a detail not shown here. Identical values can stand only once. Inconclusive results and toxic doses are left out. No stated cut-off is given here; in the data, active means T/C of 150% or more; inactive means T/C below 125%.

Test system: L1210 leukemia ip in BDF1 mice, survival T/C
Assay: NCI In Vivo Anticancer Drug Screen. Data for tumor model L1210 Leukemia (intraperitoneal) in B6D2F1 (BDF1) mice
Conditions: endpoint: mean survival time, higher = longer survival
Summary of the method: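 Tumor cells were implanted, animals were treated, and survival was followed. The result divides the treated measurement by the vehicle-control measurement.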

[1] = dose: 23.0 mg/kg/injection, schedule: Q01DX009 (ip), vehicle: saline
[2] = dose: 100.0 mg/kg/injection, schedule: Q04DX003 (ip), vehicle: saline with Tween-80
[3] = dose: 200.0 mg/kg/injection, schedule: Q04DX003 (ip), vehicle: saline with Tween-80
[4] = dose: 400.0 mg/kg/injection, schedule: Q04DX003 (ip), vehicle: saline with Tween-80
[5] = dose: 100.0 mg/kg/injection, schedule: Q04DX002 (ip), vehicle: saline with Tween-80
[6] = dose: 200.0 mg/kg/injection, schedule: Q04DX002 (ip), vehicle: saline with Tween-80
[7] = dose: 400.0 mg/kg/injection, schedule: Q04DX002 (ip), vehicle: saline with Tween-80

Measured: T/C

O=P(OCc1ccccc1)(N(CCO)CCO)N(CCCl)CCCl (stereo unspecified)
inactive: dose: 25.0 mg/kg/injection, schedule: Q01DX Z (ip), vehicle: saline 91 % of control | dose: 50.0 mg/kg/injection, schedule: Q01DX Z (ip), vehicle: saline 100 % of control | dose: 100.0 mg/kg/injection, schedule: Q01DX Z (ip), vehicle: saline 94 % of control | dose: 200.0 mg/kg/injection, schedule: Q01DX Z (ip), vehicle: saline 103 % of control

CN(C)N=Nc1cccnc1
inactive: dose: 8.0 mg/kg/injection, schedule: Q01DX009 (ip), vehicle: saline 97 % of control | dose: 9.5 mg/kg/injection, schedule: Q01DX001 (ip), vehicle: saline 106 % of control | dose: 14.0 mg/kg/injection, schedule: Q01DX009 (ip), vehicle: saline 103 % of control | dose: 19.0 mg/kg/injection, schedule: Q01DX001 (ip), vehicle: saline 106 % of control | [1] 108 % of control | dose: 38.0 mg/kg/injection, schedule: Q01DX001 (ip), vehicle: saline 117 % of control
active: dose: 57.0 mg/kg/injection, schedule: Q01DX009 (ip), vehicle: saline 150 % of control | dose: 86.0 mg/kg/injection, schedule: Q01DX009 (ip), vehicle: saline 162 % of control

N#Cc1cnc(SCc2ccccc2)nc1N
inactive: dose: 100.0 mg/kg/injection, schedule: Q01DX001 (ip), vehicle: gum acacia 95 % of control | dose: 100.0 mg/kg/injection, schedule: Q01DX009 (ip), vehicle: gum acacia 95 % of control | dose: 200.0 mg/kg/injection, schedule: Q01DX001 (ip), vehicle: gum acacia 95 % of control | dose: 200.0 mg/kg/injection, schedule: Q01DX009 (ip), vehicle: gum acacia 98 % of control | dose: 400.0 mg/kg/injection, schedule: Q01DX001 (ip), vehicle: gum acacia 98 % of control | dose: 400.0 mg/kg/injection, schedule: Q01DX009 (ip), vehicle: gum acacia 107 % of control

CC(=O)C1=C(c2ccc([N+](=O)[O-])cc2)NC(=O)NC1c1ccco1 (stereo unspecified)
inactive: [2] 98 % of control | [3] 93 % of control | [4] 100 % of control

O=C(Nc1cccc(C2=NCCN2)c1)c1ccc(-c2ccc(C(=O)Nc3cccc(C4=NCCN4)c3)cc2)cc1
inactive: dose: 50.0 mg/kg/injection, schedule: Q01DX Z (ip), vehicle: carboxymethylcellulose (CMC) 101 % of control | dose: 65.0 mg/kg/injection, schedule: Q01DX Z (ip), vehicle: methylcellulose (MC) 121 % of control | dose: 100.0 mg/kg/injection, schedule: Q01DX Z (ip), vehicle: carboxymethylcellulose (CMC) 120 % of control | dose: 100.0 mg/kg/injection, schedule: Q01DX Z (ip), vehicle: methylcellulose (MC) 113 % of control | dose: 400.0 mg/kg/injection, schedule: Q01DX Z (ip), vehicle: carboxymethylcellulose (CMC) 117 % of control

Cc1nc(Br)c(Br)n1C
inactive: dose: 25.0 mg/kg/injection, schedule: Q04DX002 (ip), vehicle: Klucel (hydroxypropylcellulose) (HPC) 110 % of control | dose: 50.0 mg/kg/injection, schedule: Q01DX009 (ip), vehicle: carboxymethylcellulose (CMC) 103 % of control and 104 % of control | dose: 50.0 mg/kg/injection, schedule: Q04DX002 (ip), vehicle: Klucel (hydroxypropylcellulose) (HPC) 92 % of control | dose: 100.0 mg/kg/injection, schedule: Q01DX009 (ip), vehicle: carboxymethylcellulose (CMC) 96 % of control and 118 % of control | dose: 100.0 mg/kg/injection, schedule: Q04DX002 (ip), vehicle: Klucel (hydroxypropylcellulose) (HPC) 100 % of control and 91 % of control | dose: 100.0 mg/kg/injection, schedule: Q04DX002 (ip), vehicle: carboxymethylcellulose (CMC) 105 % of control | dose: 100.0 mg/kg/injection, schedule: Q04DX003 (ip), vehicle: carboxymethylcellulose (CMC) 91 % of control | dose: 200.0 mg/kg/injection, schedule: Q01DX009 (ip), vehicle: carboxymethylcellulose (CMC) 96 % of control and 110 % of control | dose: 200.0 mg/kg/injection, schedule: Q04DX002 (ip), vehicle: carboxymethylcellulose (CMC) 97 % of control and 105 % of control | dose: 200.0 mg/kg/injection, schedule: Q04DX003 (ip), vehicle: carboxymethylcellulose (CMC) 104 % of control

O=C(Nc1ccc(F)c([N+](=O)[O-])c1)NC(Cc1ccccc1)c1ccccc1 (stereo unspecified)
inactive: dose: 100.0 mg/kg/injection, schedule: Q01DX009 (ip), vehicle: Klucel (hydroxypropylcellulose) (HPC) 98 % of control | dose: 200.0 mg/kg/injection, schedule: Q01DX009 (ip), vehicle: Klucel (hydroxypropylcellulose) (HPC) 101 % of control | dose: 400.0 mg/kg/injection, schedule: Q01DX009 (ip), vehicle: Klucel (hydroxypropylcellulose) (HPC) 104 % of control

C/C(=N/O)c1ccccc1NO
inactive: dose: 25.0 mg/kg/injection, schedule: Q01DX001 (ip), vehicle: carboxymethylcellulose (CMC) 89 % of control | dose: 50.0 mg/kg/injection, schedule: Q01DX001 (ip), vehicle: carboxymethylcellulose (CMC) 94 % of control | dose: 100.0 mg/kg/injection, schedule: Q01DX001 (ip), vehicle: carboxymethylcellulose (CMC) 96 % of control | dose: 200.0 mg/kg/injection, schedule: Q01DX001 (ip), vehicle: carboxymethylcellulose (CMC) 91 % of control | dose: 400.0 mg/kg/injection, schedule: Q01DX001 (ip), vehicle: carboxymethylcellulose (CMC) 86 % of control

O=C(c1ccc(Cl)cc1Cl)C(CS(=O)(=O)O)CS(=O)(=O)O
inactive: [2] 99 % of control | [3] 98 % of control | [4] 100 % of control

C1CCC2(CC1)CCCO2
inactive: dose: 50.0 mg/kg/injection, schedule: Q04DX002 (ip), vehicle: saline with Tween-80 87 % of control | [5] 98 % of control | [6] 106 % of control | [7] 102 % of control

Cc1ccc(S(=O)(=O)OCCN(CCOS(=O)(=O)c2ccc(C)cc2)c2ccc(F)cc2)cc1
inactive: dose: 1.9 mg/kg/injection, schedule: Q01DX009 (ip), vehicle: saline 122 % of control | dose: 4.4 mg/kg/injection, schedule: Q01DX009 (ip), vehicle: saline 122 % of control | dose: 6.5 mg/kg/injection, schedule: Q01DX009 (ip), vehicle: saline 102 % of control | dose: 9.6 mg/kg/injection, schedule: Q01DX009 (ip), vehicle: saline 124 % of control | dose: 10.0 mg/kg/injection, schedule: Q01DX009 (ip), vehicle: saline 118 % of control | dose: 16.0 mg/kg/injection, schedule: Q01DX009 (ip), vehicle: saline 113 % of control | [1] 113 % of control | dose: 35.0 mg/kg/injection, schedule: Q01DX009 (ip), vehicle: saline 121 % of control | dose: 50.0 mg/kg/injection, schedule: Q01DX001 (ip), vehicle: saline 97 % of control | dose: 50.0 mg/kg/injection, schedule: Q01DX009 (ip), vehicle: saline 95 % of control | dose: 53.0 mg/kg/injection, schedule: Q01DX009 (ip), vehicle: other 110 % of control | dose: 75.0 mg/kg/injection, schedule: Q01DX009 (ip), vehicle: saline 88 % of control | dose: 79.0 mg/kg/injection, schedule: Q01DX009 (ip), vehicle: other 98 % of control and 119 % of control | dose: 100.0 mg/kg/injection, schedule: Q01DX001 (ip), vehicle: saline 100 % of control | dose: 118.0 mg/kg/injection, schedule: Q01DX009 (ip), vehicle: other 104 % of control | dose: 150.0 mg/kg/injection, schedule: Q01DX009 (ip), vehicle: saline 123 % of control | dose: 200.0 mg/kg/injection, schedule: Q01DX001 (ip), vehicle: saline 105 % of control | dose: 400.0 mg/kg/injection, schedule: Q01DX001 (ip), vehicle: saline 115 % of control
active: dose: 22.0 mg/kg/injection, schedule: Q01DX009 (ip), vehicle: saline 166 % of control | dose: 24.0 mg/kg/injection, schedule: Q01DX009 (ip), vehicle: saline 152 % of control

CCC1(O)C2CCCC1CCC2 (stereo unspecified)
inactive: dose: 100.0 mg/kg/injection, schedule: Q01DX009 (ip), vehicle: saline with Tween-80 97 % of control | dose: 100.0 mg/kg/injection, schedule: Q04DX003 (ip), vehicle: Klucel (hydroxypropylcellulose) (HPC) 97 % of control | dose: 200.0 mg/kg/injection, schedule: Q01DX009 (ip), vehicle: saline with Tween-80 94 % of control | dose: 200.0 mg/kg/injection, schedule: Q04DX003 (ip), vehicle: Klucel (hydroxypropylcellulose) (HPC) 92 % of control | dose: 400.0 mg/kg/injection, schedule: Q01DX009 (ip), vehicle: saline with Tween-80 97 % of control | dose: 400.0 mg/kg/injection, schedule: Q04DX003 (ip), vehicle: Klucel (hydroxypropylcellulose) (HPC) 97 % of control

N#C/C(=C\c1cccn1Cc1ccc2ccccc2c1)C(N)=O
inactive: [5] 104 % of control | [6] 96 % of control | [7] 93 % of control

C=C1C(=O)OC2CCCCC3OC3C12 (stereo unspecified)
inactive: dose: 100.0 mg/kg/injection, schedule: Q01DX001 (ip), vehicle: saline with Tween-80 102 % of control
